Laboratory results: ChEMBL document CHEMBL1201862, “PubChem BioAssay data set” (2004)
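Five compound concentrations were applied to cells in 96-well plates for 48 hours; endpoints were derived by simple linear interpolation of the resulting dose-response curve. GI50 is the concentration that inhibits growth by half.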 The source made the active and inactive calls. Cut-off read from the data, not from the text of the source: active = GI50 up to about 1.1 µM and inactive = higher.

Tests used:
Experiment in all cases: inhibition of tumour cell growth, NCI panel, 48 h
CAKI-1 = test system: CAKI-1
CCRF-CEM = test system: CCRF-CEM
COLO 205 = test system: COLO 205
Hs-578T = test system: Hs-578T
K562 = test system: K562
KM12 = test system: KM12
M14 = test system: M14
MDA-MB-231 = test system: MDA-MB-231
NCI/ADR-RES = test system: NCI/ADR-RES
OVCAR-8 = test system: OVCAR-8
SF-539 = test system: SF-539
SK-MEL-2 = test system: SK-MEL-2
SK-MEL-5 = test system: SK-MEL-5
SNB-75 = test system: SNB-75
T47D = test system: T47D
U-251 = test system: U-251
UACC-257 = test system: UACC-257
UO-31 = test system: UO-31
MCF7 = test system: MCF7

Row | SMILES | GI50 (CAKI-1) | GI50 (CCRF-CEM) | GI50 (COLO 205) | GI50 (Hs-578T) | GI50 (K562) | GI50 (KM12) | GI50 (M14) | GI50 (MDA-MB-231) | GI50 (NCI/ADR-RES) | GI50 (OVCAR-8) | GI50 (SF-539) | GI50 (SK-MEL-2) | GI50 (SK-MEL-5) | GI50 (SNB-75) | GI50 (T47D) | GI50 (U-251) | GI50 (UACC-257) | GI50 (UO-31) | GI50 (MCF7)
1 | CC(=O)C1=C(C)O[C@@H]2O[C@H](COCc3ccccc3)[C@@H](OCc3ccccc3)[C@H](O)[C@@H]2S1 | 49.3 µM (inactive) | 0.855 µM (active) | 22.2 µM (inactive) | 17.9 µM (inactive) | 19.7 µM (inactive) | 19.6 µM (inactive) | 20.4 µM (inactive) | 20.3 µM (inactive) | 16.3 µM (inactive) | 23 µM (inactive) | 20 µM (inactive) | 20.4 µM (inactive) | 16.5 µM (inactive) | 23.3 µM (inactive) | 5.9 µM (inactive) | 20.8 µM (inactive) | 18.3 µM (inactive) | 22 µM (inactive) | –
2 | CNC(=O)/C(C#N)=C(\N)N1CCCC1 | > 100 µM (inactive) | > 100 µM (inactive) | > 100 µM (inactive) | > 100 µM (inactive) | > 100 µM (inactive) | > 100 µM (inactive) | – | > 100 µM (inactive) | > 100 µM (inactive) | > 100 µM (inactive) | > 100 µM (inactive) | > 100 µM (inactive) | > 100 µM (inactive) | – | > 100 µM (inactive) | > 100 µM (inactive) | – | > 100 µM (inactive) | –
3 | Cc1ccc2c(c1)C/C(=C\c1ccccc1C(=O)O)C2=O | > 100 µM (inactive) | > 100 µM (inactive) | 35.6 µM (inactive) | > 100 µM (inactive) | 98.2 µM (inactive) | > 100 µM (inactive) | – | – | > 100 µM (inactive) | > 100 µM (inactive) | 50.1 µM (inactive) | > 100 µM (inactive) | 52.6 µM (inactive) | > 100 µM (inactive) | > 100 µM (inactive) | > 100 µM (inactive) | > 100 µM (inactive) | 98.6 µM (inactive) | > 100 µM (inactive)
4 | CCCCC1Cc2ccccc2-c2n1c1ccccc1[n+]2C (centres undefined) | > 100 µM (inactive) | 10.9 µM (inactive) | – | 12.1 µM (inactive) | 2.49 µM (inactive) | 9.55 µM (inactive) | 23.3 µM (inactive) | 22.2 µM (inactive) | > 100 µM (inactive) | 21.9 µM (inactive) | 27.8 µM (inactive) | 8.53 µM (inactive) | 4.54 µM (inactive) | – | 0.959 µM (active) | 3.1 µM (inactive) | 1.87 µM (inactive) | 66.7 µM (inactive) | 8.77 µM (inactive)
5 | Clc1ccc(-c2ccc(-c3nn4c(CNc5ccccc5)nnc4s3)o2)c(Cl)c1 | > 100 µM (inactive) | 46.7 µM (inactive) | 28 µM (inactive) | > 100 µM (inactive) | 43.7 µM (inactive) | 60 µM (inactive) | 93.3 µM (inactive) | 69.8 µM (inactive) | 81.7 µM (inactive) | 68.7 µM (inactive) | 22.5 µM (inactive) | 90.4 µM (inactive) | 33.4 µM (inactive) | 50.7 µM (inactive) | 13.5 µM (inactive) | > 100 µM (inactive) | 53.1 µM (inactive) | > 100 µM (inactive) | –
6 | CC1CC(N)=Nc2ccccc2N1 (centres undefined) | > 100 µM (inactive) | > 100 µM (inactive) | > 100 µM (inactive) | > 100 µM (inactive) | > 100 µM (inactive) | > 100 µM (inactive) | > 100 µM (inactive) | > 100 µM (inactive) | > 100 µM (inactive) | > 100 µM (inactive) | – | > 100 µM (inactive) | > 100 µM (inactive) | 30.1 µM (inactive) | – | > 100 µM (inactive) | > 100 µM (inactive) | > 100 µM (inactive) | –
7 | C/C(=N\O)c1ccc(Nc2nc3ccccc3c3occc23)cc1 | 3.15 µM (inactive) | 4 µM (inactive) | 4.66 µM (inactive) | 9.18 µM (inactive) | 2.19 µM (inactive) | 3.77 µM (inactive) | 4.86 µM (inactive) | 2.76 µM (inactive) | 6.76 µM (inactive) | 15.2 µM (inactive) | 6.68 µM (inactive) | 12.6 µM (inactive) | 8.51 µM (inactive) | – | 5.45 µM (inactive) | 12.6 µM (inactive) | 5.12 µM (inactive) | 15.9 µM (inactive) | 3.42 µM (inactive)
8 | CCOP(=O)(OCC)C(N)Cc1ccc(OC)c(OC)c1 (centres undefined) | > 100 µM (inactive) | > 100 µM (inactive) | > 100 µM (inactive) | – | > 100 µM (inactive) | > 100 µM (inactive) | > 100 µM (inactive) | > 100 µM (inactive) | > 100 µM (inactive) | > 100 µM (inactive) | > 100 µM (inactive) | > 100 µM (inactive) | > 100 µM (inactive) | > 100 µM (inactive) | > 100 µM (inactive) | > 100 µM (inactive) | > 100 µM (inactive) | > 100 µM (inactive) | 45.3 µM (inactive)
9 | Cc1ccc(/C=C/C(=O)c2c([O-])on[n+]2-c2ccccc2)cc1 | 1.98 µM (inactive) | 1.36 µM (inactive) | 2.69 µM (inactive) | 2.47 µM (inactive) | 3.68 µM (inactive) | 2.39 µM (inactive) | 2.34 µM (inactive) | 4.98 µM (inactive) | 2.4 µM (inactive) | 1.85 µM (inactive) | 3.28 µM (inactive) | 2.11 µM (inactive) | 3.71 µM (inactive) | – | 2.84 µM (inactive) | 2.79 µM (inactive) | 3.64 µM (inactive) | 2.62 µM (inactive) | 3.53 µM (inactive)
10 | CCc1nnc(S)n1/N=C/c1ccc(-c2ccc([N+](=O)[O-])cc2)o1 | > 100 µM (inactive) | – | > 100 µM (inactive) | – | > 100 µM (inactive) | > 100 µM (inactive) | > 100 µM (inactive) | – | – | > 100 µM (inactive) | > 100 µM (inactive) | > 100 µM (inactive) | – | > 100 µM (inactive) | – | > 100 µM (inactive) | > 100 µM (inactive) | > 100 µM (inactive) | –
11 | Cc1ccc(N2C(=O)C(O)=C(C(=O)C(C)(C)C)C2c2ccc([N+](=O)[O-])cc2)cc1 (centres undefined) | 3.94 µM (inactive) | 26.3 µM (inactive) | 15.7 µM (inactive) | 16.9 µM (inactive) | 23.9 µM (inactive) | 16.7 µM (inactive) | 18.2 µM (inactive) | 18.9 µM (inactive) | 19.5 µM (inactive) | 18.9 µM (inactive) | 24.9 µM (inactive) | 24 µM (inactive) | 15.8 µM (inactive) | – | 18.8 µM (inactive) | 26.6 µM (inactive) | 15.8 µM (inactive) | 29.6 µM (inactive) | 17.7 µM (inactive)
12 | N#Cc1c(N)nc2[nH]nc(N)c2c1-c1ccc(Cl)cc1 | 3.02 µM (inactive) | 4.95 µM (inactive) | 1.48 µM (inactive) | 2.5 µM (inactive) | 16.9 µM (inactive) | 4.12 µM (inactive) | 3.33 µM (inactive) | 2.65 µM (inactive) | 7.66 µM (inactive) | 6.75 µM (inactive) | 6.38 µM (inactive) | 1.88 µM (inactive) | 3.84 µM (inactive) | – | 1.47 µM (inactive) | 19.3 µM (inactive) | 11.9 µM (inactive) | 2.42 µM (inactive) | 3.03 µM (inactive)
13 | c1ccc(CNc2ncnc3nn[nH]c23)cc1 | > 100 µM (inactive) | > 100 µM (inactive) | > 100 µM (inactive) | – | > 100 µM (inactive) | > 100 µM (inactive) | > 100 µM (inactive) | > 100 µM (inactive) | > 100 µM (inactive) | > 100 µM (inactive) | > 100 µM (inactive) | > 100 µM (inactive) | > 100 µM (inactive) | > 100 µM (inactive) | > 100 µM (inactive) | > 100 µM (inactive) | > 100 µM (inactive) | 91 µM (inactive) | > 100 µM (inactive)
14 | OC[C@H]1C[C@@H]2Cc3ccccc3N2N1 | > 100 µM (inactive) | > 100 µM (inactive) | > 100 µM (inactive) | > 100 µM (inactive) | > 100 µM (inactive) | > 100 µM (inactive) | > 100 µM (inactive) | > 100 µM (inactive) | > 100 µM (inactive) | > 100 µM (inactive) | > 100 µM (inactive) | > 100 µM (inactive) | > 100 µM (inactive) | > 100 µM (inactive) | > 100 µM (inactive) | > 100 µM (inactive) | > 100 µM (inactive) | – | –
15 | c1ccc(C(=NNc2nc3ccccc3o2)c2ccccn2)nc1 | 0.0723 µM (active) | < 0.01 µM (active) | < 0.01 µM (active) | 0.447 µM (active) | 0.0327 µM (active) | 0.148 µM (active) | 0.0281 µM (active) | 0.055 µM (active) | 0.0245 µM (active) | 0.0301 µM (active) | 0.0931 µM (active) | 0.0883 µM (active) | 0.0818 µM (active) | – | < 0.01 µM (active) | 0.0998 µM (active) | 0.0494 µM (active) | 0.0685 µM (active) | < 0.0161 µM (active)
16 | C[C@@H]1O[C@@H](O[C@H]2CC[C@]3(C=O)[C@H]4CC[C@]5(C)[C@@H](C6=CC(=O)OC6)CC[C@]5(O)[C@@H]4CC[C@]3(O)C2)[C@H](O)[C@H](O)[C@H]1O [CONVALLATOXIN] | 1.23e-05 µM (active) | < 0.01 µM (active) | 9.35e-05 µM (active) | < 0.01 µM (active) | 4.92e-05 µM (active) | 8.39e-05 µM (active) | 0.0146 µM (active) | 0.00013 µM (active) | 1.26e-05 µM (active) | 2.94e-05 µM (active) | 1.83e-05 µM (active) | 7.1e-05 µM (active) | 2.05e-05 µM (active) | 4.3e-05 µM (active) | 5.62e-05 µM (active) | 5.58e-05 µM (active) | 6.67e-05 µM (active) | < 0.01 µM (active) | –
